# Assay results published in the supplement of paper PMC10307832.
# Tests used:
# Test in all cases: relative viability (nuclei count vs DMSO), 5 days (fraction); higher = more cells survive
# [1] = compound: CCN(CCO)CCCC(C)Nc1ccnc2cc(Cl)ccc12 [Hydroxychloroquine] + O=C(c1cc(Cc2n[nH]c(=O)c3ccccc23)ccc1F)N1CCN(C(=O)C2CC2)CC1 [Olaparib] (partner 8 µM)
# Outline: (§1)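 Medians of duplicate plates are given as relative viability. That measure is the nuclei count in treated wells divided by the count in vehicle wells. Counts were taken on 4× images of lung cancer cell lines in 1536-well plates, 5 days after pin-tool dosing the day after seeding with one drug alone or a fixed anchor-drug dose plus five library-drug doses (not always all listed) in √10 steps.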
# [2] = compound: CCN(CCO)CCCC(C)Nc1ccnc2cc(Cl)ccc12 [Hydroxychloroquine] + N=C(N)NC(=N)NCCc1ccccc1 [Phenformin] (partner 250 µM)
# Outline: as §1
# [3] = compound: CCN(CCO)CCCC(C)Nc1ccnc2cc(Cl)ccc12 [Hydroxychloroquine] + CS(=O)(=O)CCNCc1ccc(-c2ccc3ncnc(Nc4ccc(OCc5cccc(F)c5)c(Cl)c4)c3c2)o1 [Lapatinib] (partner 2 µM)
# Outline: as §1
# [4] = compound: CCN(CCO)CCCC(C)Nc1ccnc2cc(Cl)ccc12 [Hydroxychloroquine] + CC(=O)Nc1cccc(-n2c(=O)n(C3CC3)c(=O)c3c(Nc4ccc(I)cc4F)n(C)c(=O)c(C)c32)c1 [Trametinib] (partner 0.02 µM)
# Outline: as §1
Cell Line,relative viability ([1]; first compound 0.5 µM),relative viability ([1]; first compound 1.581 µM),relative viability ([1]; first compound 5 µM),relative viability ([1]; first compound 15.81 µM),relative viability ([1]; first compound 50 µM),relative viability ([2]; first compound 0.5 µM),relative viability ([2]; first compound 1.581 µM),relative viability ([2]; first compound 5 µM),relative viability ([2]; first compound 15.81 µM),relative viability ([2]; first compound 50 µM),relative viability ([3]; first compound 0.5 µM),relative viability ([3]; first compound 1.581 µM),relative viability ([3]; first compound 5 µM),relative viability ([3]; first compound 15.81 µM),relative viability ([3]; first compound 50 µM),relative viability ([4]; first compound 0.5 µM),relative viability ([4]; first compound 1.581 µM),relative viability ([4]; first compound 5 µM),relative viability ([4]; first compound 15.81 µM),relative viability ([4]; first compound 50 µM)
NCI-H727,0.738,0.673,0.653,0.73,0.629,0.514,0.424,0.407,0.618,0.532,0.893,0.842,0.699,0.814,0.931,0.369,0.361,0.396,0.405,0.382
NCI-H1993,1.24,1.04,1.14,0.61,1.11,0.514,0.55,0.475,0.51,0.476,0.751,0.759,0.899,0.834,0.839,0.525,0.589,0.597,0.551,0.469
NCI-H1437,0.604,0.665,0.65,0.653,0.652,0.304,0.316,0.31,0.297,0.31,0.833,1.05,0.885,0.758,0.845,0.543,0.579,0.515,0.459,0.544
201T,0.788,0.821,0.826,0.857,0.829,0.441,0.428,0.449,0.419,0.526,1.05,1.02,1.02,1.02,1.05,0.727,0.777,0.728,0.733,0.724
NCI-H358,0.675,0.585,0.522,0.973,0.571,0.345,0.284,0.314,0.32,0.323,0.487,0.432,0.412,0.486,0.476,0.128,0.122,0.132,0.131,0.127
NCI-H1650,0.804,0.781,0.788,0.881,0.917,0.473,0.507,0.404,0.402,0.303,0.844,0.697,0.702,0.75,0.765,0.556,0.681,0.515,0.591,0.494
LOU-NH91,0.945,0.846,0.888,0.869,0.961,0.704,0.562,0.679,0.732,0.466,0.759,0.591,0.776,0.754,0.738,0.795,0.69,0.799,0.828,0.848
HOP-62,0.368,0.232,0.443,0.496,0.394,0.557,0.603,0.762,0.686,0.755,1.07,0.889,1.1,0.98,1.04,0.37,0.387,0.386,0.397,0.341
NCI-H1915,0.244,0.243,0.262,0.275,0.265,0.347,0.36,0.361,0.383,0.369,0.958,0.91,1,1.07,1.02,0.328,0.251,0.325,0.311,0.306
NCI-H3122,0.623,0.646,0.676,0.664,0.729,0.379,0.364,0.373,0.358,0.344,1.02,1.01,1.05,1,1.07,0.19,0.215,0.2,0.319,0.232
NCI-H1651,0.178,0.193,0.191,0.18,0.197,0.358,0.346,0.297,0.356,0.325,0.811,0.925,0.729,0.979,0.988,0.832,0.894,0.834,0.864,0.879
PC-14,0.31,0.28,0.276,0.25,0.285,0.676,0.573,0.551,0.595,0.601,0.348,0.354,0.291,0.306,0.292,0.708,0.846,0.667,0.798,0.687
NCI-H647,0.521,0.531,0.591,0.626,0.602,0.503,0.556,0.441,0.63,0.661,1.22,1.11,1.09,1.26,1.26,0.474,0.494,0.438,0.497,0.519
SW 1573,0.504,0.484,0.432,0.472,0.458,0.356,0.333,0.402,0.402,0.368,0.98,1.01,1.15,1.07,0.997,0.617,0.595,0.55,0.625,0.499
NCI-H460,0.409,0.431,0.387,0.479,0.334,0.506,0.533,0.577,0.518,0.635,1.03,1.05,0.778,1.55,1.5,0.203,0.11,0.119,0.187,0.13
NCI-H661,0.782,0.695,0.743,0.684,0.69,0.275,0.259,0.3,0.243,0.254,0.433,0.426,0.43,0.467,0.465,0.549,0.522,0.593,0.596,0.577
SK-MES-1,0.812,0.683,0.724,0.738,0.671,0.668,0.741,0.723,0.693,0.635,0.515,0.418,0.487,0.472,0.449,0.558,0.52,0.538,0.559,0.553

Cell Line,relative viability ([1]; first compound 0.5 µM),relative viability ([1]; first compound 1.581 µM),relative viability ([1]; first compound 5 µM),relative viability ([1]; first compound 15.81 µM),relative viability ([1]; first compound 50 µM),relative viability ([2]; first compound 0.5 µM),relative viability ([2]; first compound 1.581 µM),relative viability ([2]; first compound 5 µM),relative viability ([2]; first compound 15.81 µM),relative viability ([2]; first compound 50 µM),relative viability ([3]; first compound 0.5 µM),relative viability ([3]; first compound 1.581 µM),relative viability ([3]; first compound 5 µM),relative viability ([3]; first compound 15.81 µM),relative viability ([3]; first compound 50 µM),relative viability ([4]; first compound 0.5 µM),relative viability ([4]; first compound 1.581 µM),relative viability ([4]; first compound 5 µM),relative viability ([4]; first compound 15.81 µM),relative viability ([4]; first compound 50 µM)
NCI-H1792,0.461,0.413,0.195,0.439,0.433,0.529,0.261,0.258,0.102,0.371,0.889,0.923,0.831,0.793,0.93,0.496,0.464,0.474,0.387,0.378
NCI-H1355,0.796,0.685,0.661,0.709,0.782,0.431,0.408,0.457,0.442,0.425,1.03,0.88,1.02,0.887,1.06,0.374,0.413,0.435,0.376,0.388
UMC-11,0.342,0.325,0.365,0.366,0.353,,0.305,0.308,0.315,0.335,0.829,0.735,0.982,1.1,1.13,0.642,0.431,0.762,0.669,0.741
NCI-H2347,0.594,0.563,0.588,0.608,0.541,0.469,0.466,0.446,0.329,0.377,0.882,0.842,1.09,0.922,0.958,0.293,0.248,0.272,0.281,0.325
LCLC-97TM1,0.529,0.371,0.324,0.453,0.29,0.435,0.409,0.488,0.422,0.384,0.926,1.27,0.928,1.1,1.03,0.208,0.185,0.196,0.23,0.16
EMC-BAC-2,0.508,0.439,0.472,0.484,0.442,0.543,0.385,0.497,0.523,0.503,0.96,0.722,0.897,0.832,0.956,0.917,0.694,0.85,0.784,0.753
NCI-H1975,0.816,0.767,0.856,0.85,0.911,0.41,0.37,0.378,0.408,0.396,0.989,0.867,0.874,0.891,1.18,0.36,0.322,0.341,0.38,0.321
BEN,0.843,1.08,1.04,1.03,1.02,0.255,0.26,0.234,0.241,0.303,0.704,0.553,0.609,0.707,0.891,0.951,0.881,0.954,1.12,1.03
NCI-H23,0.365,0.36,0.322,0.309,0.204,0.803,0.76,0.806,0.797,0.829,1.08,0.915,0.957,1.22,1.1,0.387,0.387,0.364,0.36,0.327
NCI-H596,0.668,0.711,0.77,0.716,0.604,0.69,0.66,0.784,0.835,0.908,0.969,0.995,1.04,1.05,1,0.652,0.926,0.769,0.797,0.795
CAL-12T,0.693,0.63,0.782,0.689,0.68,0.585,0.593,0.587,0.599,0.519,0.752,,0.659,0.633,0.691,0.268,0.265,0.326,0.338,0.32
EPLC-272H,,0.891,0.94,0.929,0.73,0.267,0.312,0.273,0.309,0.241,0.988,0.879,0.77,0.877,1.06,0.272,0.311,0.273,0.271,0.298
NCI-H2405,0.934,0.87,0.836,0.886,0.861,0.417,0.352,0.368,0.384,0.398,1.09,0.998,1.1,1.04,1.15,0.668,0.677,0.585,0.62,0.615
HCC-15,0.688,0.675,0.735,0.817,0.626,0.461,0.465,0.522,0.497,0.456,0.847,0.812,0.873,0.867,0.836,0.4,0.387,0.351,0.38,0.311
RERF-LC-KJ,0.917,0.948,0.896,0.846,0.933,0.4,0.402,0.406,0.402,0.408,0.847,0.805,0.942,0.779,0.94,0.858,0.826,0.825,0.83,0.886
NCI-H1944,0.417,0.445,0.416,0.414,0.402,0.196,0.17,0.193,0.195,0.204,0.762,0.755,0.797,0.867,0.967,0.398,0.354,0.39,0.403,0.41
